Reference: patent US10683216B2, “Selective adsorbent fabric for water purification” (Chemica Technologies, Inc., priority 2013, dated 2020)

Legend:
[1] = Kinetics of adsorption of organic toxins to ACF-H in Standard Synthetic Test Water; settings: STW, pH 6.9~7.0; for ACF-H 50% (estimated time to achieve designated toxin removal): 50% removal; for ACF-H >95% (estimated time to achieve designated toxin removal): >95% removal
[2] = Kinetics of adsorption of organic toxins to ACF-OH in Standard Synthetic Test Water; settings: STW, pH 6.9~7.0; for ACF-OH 50% (estimated time to achieve designated toxin removal): 50% removal; for ACF-OH >95% (estimated time to achieve designated toxin removal): >95% removal; for ACF-OH removal reached, in brackets in the >95% column: >95% not reached
[3] = Kinetics of adsorption of organic toxins to ACF-SBX in Standard Synthetic Test Water; settings: STW, pH 6.9~7.0; for ACF-SBX 50% (estimated time to achieve designated toxin removal): 50% removal; for ACF-SBX >95% (estimated time to achieve designated toxin removal): >95% removal
[4] = Log P (logarithm of measured partition coefficient)

SMILES | ACF-H 50% (estimated time to achieve designated toxin removal) [1] | ACF-H >95% (estimated time to achieve designated toxin removal) [1] | ACF-OH 50% (estimated time to achieve designated toxin removal) [2] | ACF-OH >95% (estimated time to achieve designated toxin removal) [2] | ACF-SBX 50% (estimated time to achieve designated toxin removal) [3] | ACF-SBX >95% (estimated time to achieve designated toxin removal) [3] | ACF-OH removal reached, in brackets in the >95% column [2] | logP (physchem) | Log P ([4]; logarithm of measured partition coefficient) | logP [4] | ACF-H removal reached, in brackets in the >95% column ([1]; >95% not reached)
CN(C)C(=O)Nc1ccc(Cl)c(Cl)c1 [diuron] | 3.0 min | 15.0 min | 30.0 min | 55.0 min | 3.0 min | 15.0 min |  |  |  |  | 
CCCCCCCCCc1ccc(O)cc1 [4-nonylphenol] | 2.0 min | 30.0 min | 57.0 min |  | 5.0 min | 45.0 min | (73%) | 5.76 |  |  | 
Clc1ccc(Cl)cc1 [p-dichlorobenzene] | 1.0 min | 2.0 min | 1.0 min | 2.0 min | 1.0 min | 2.0 min |  |  | 3.44 |  | 
CCCCC(CC)COC(=O)c1ccccc1C(=O)OCC(CC)CCCC (stereo not shown) [DEHP, bis(2-ethylhexyl)phthalate] | 20.0 min | 80.0 min | 43.3 min |  | 3.8 min | 20.0 min | (92%) |  |  | 7.8 | 
CCNc1nc(Cl)nc(NC(C)C)n1 [atrazine] | 2.0 min | 20.0 min | 6.0 min |  | 1.6 min | 10.0 min | (90%) | 2.61 |  |  | 
Oc1ccc(Cl)cc1Cl [2,4-dichlorophenol] | 1.5 min | 30.0 min | 2.6 min |  | 2.3 min | 30.0 min | (92%) | 3.17 |  |  | 
Cc1ccc(O)cc1 [p-cresol] |  |  |  |  |  |  |  | 1.97 |  |  | 
Clc1ccccc1Cl [o-dichlorobenzene] | 1.5 min | 3.0 min | 1.5 min | 3.0 min | 0.8 min | 3.0 min |  | 3.38 |  |  | 
CCOC(=O)c1ccccc1C(=O)OCC [diethyl phthalate] | 5.0 min | 50.0 min | 60.0 min |  | 3.5 min | 25.0 min | (69%) | 2.42 |  |  | 
Cc1ccc(S(=O)(=O)[N-]Cl)cc1.[Na+] [chloramine-T] | 3.3 min | 25.0 min | 50.0 min |  | 3.3 min | 25.0 min | (82%) |  |  |  | 
CCc1ccccc1 [ethylbenzene] | 0.3 min |  | 0.3 min | 0.5 min | 0.3 min |  |  |  |  |  | 
O=[N+]([O-])c1ccc(O)cc1 [4-nitrophenol] | 0.8 min | 20.0 min | 5.0 min | 60.0 min | 1.5 min | 20.0 min |  |  |  |  | 
Brc1c(Br)c(Br)c(Oc2c(Br)c(Br)c(Br)c(Br)c2Br)c(Br)c1Br [deca-BDE, decabromodiphenyl ether] | 0.4 min |  |  |  | 0.5 min |  |  | 9.97 |  |  | 
C[C@]12CC[C@@H]3c4ccc(O)cc4CC[C@H]3[C@@H]1CC[C@@H]2O [17β-estradiol] | 0.5 min | 10.0 min | 0.5 min | 50.0 min | 0.5 min | 10.0 min |  |  |  |  | 
Oc1cc(Cl)ccc1Oc1ccc(Cl)cc1Cl [triclosan] | 2.5 min | 55.0 min | 26.0 min |  | 1.7 min | 46.7 min | (91%) |  |  | 4.53 | 
c1ccc2cc3ccccc3cc2c1 [anthracene] | ^♦0.5 min | 53.0 min | 0.4 min | 30.0 min | 0.4 min | 12.5 min |  |  |  |  | 
CC(C)(c1ccc(O)cc1)c1ccc(O)cc1 [bisphenol A] | 5.0 min | 30.0 min | 45.0 min |  | 4.0 min | 30.0 min | (70%) | 3.32 |  |  | 
CCN(CC)N=O [NDEA, N-nitrosodiethylamine] | 3.8 min |  | 30.0 min |  | 4.6 min | 60.0 min | (59%) | 0.48 |  |  | (93%)
Clc1ccccc1 [chlorobenzene] | 0.3 min | 2.0 min | 0.3 min | 2.0 min | 0.3 min | 2.0 min |  |  |  |  | 
O=c1[nH]c(=O)c2[nH]c(=O)[nH]c2[nH]1 [uric acid] | 3.0 min | 30.0 min | 15.0 min | 60.0 min | 3.0 min | 30.0 min |  |  |  | -2.92 | 
